For the assay, the system named is C57BL/6 mice, Adenocarcinoma 755 sc, tumor weight T/C. The assay can be described thus: NCI In Vivo Anticancer Drug Screen. Data for tumor model Adenocarcinoma 755 (subcutaneous) in C57BL/6 mice. To be noted: endpoint: mean tumor weight, higher = larger tumour. As for the experimental part:
The antitumor activity of compounds was measured in mice bearing transplantable tumors. Survival or tumor size were measured and the results are expressed as the measurement made in the treated group (T) divided by the measurement made in the vehicle treated control group (C). The tumor model used in this assay is Adenocarcinoma 755 (subcutaneous) in C57BL/6 mice

The mark [1] stands for this setting: dose: 150.0 mg/kg/injection, schedule: Q01DX011 (ip), vehicle: saline.
[2] abbreviates: dose: 30.0 mg/kg/injection, schedule: Q01DX011 (ip), vehicle: saline.
[3] abbreviates: dose: 10.0 mg/kg/injection, schedule: Q01DX011 (ip), vehicle: saline.
Setting [4] is: dose: 15.0 mg/kg/injection, schedule: Q01DX011 (ip), vehicle: saline.
The mark [5] stands for this setting: dose: 0.5 mg/kg/injection, schedule: Q01DX011 (ip), vehicle: carboxymethylcellulose (CMC).
The mark [6] stands for this setting: dose: 2.5 mg/kg/injection, schedule: Q01DX011 (ip), vehicle: carboxymethylcellulose (CMC).
[7] abbreviates: dose: 5.0 mg/kg/injection, schedule: Q01DX011 (ip), vehicle: saline.
Where [8] appears, read: dose: 320.0 mg/kg/injection, schedule: Q01DX001 (oral), vehicle: alkali diluted with saline.
Setting [9] is: dose: 320.0 mg/kg/injection, schedule: Q03DX004 (oral), vehicle: alkali diluted with saline.
Where [10] appears, read: dose: 320.0 mg/kg/injection, schedule: Q07DX002 (oral), vehicle: alkali diluted with saline.
Where [11] appears, read: dose: 480.0 mg/kg/injection, schedule: Q01DX001 (oral), vehicle: alkali diluted with saline.
The mark [12] stands for this setting: dose: 480.0 mg/kg/injection, schedule: Q07DX002 (oral), vehicle: alkali diluted with saline.
The mark [13] stands for this setting: dose: 640.0 mg/kg/injection, schedule: Q01DX001 (oral), vehicle: alkali diluted with saline.
The mark [14] stands for this setting: dose: 640.0 mg/kg/injection, schedule: Q07DX002 (oral), vehicle: alkali diluted with saline.
The mark [15] stands for this setting: dose: 20.0 mg/kg/injection, schedule: Q01DX011 (ip), vehicle: saline.
The mark [16] stands for this setting: dose: 50.0 mg/kg/injection, schedule: Q01DX011 (ip), vehicle: saline.

“And” between values parts separate entries of the source, which are not always exact repeats. Identical values can stand only once.

As to `CCOc1ccccc1C(=O)Nc1ccc(Br)cc1`, the T/C (in general, the result in the treated group divided by that in the control group, in per cent) runs as follows: (dose: 75.0 mg/kg/injection, schedule: Q01DX011 (ip), vehicle: saline) 94 % of control; under setting [1], 98 % of control; (dose: 300.0 mg/kg/injection, schedule: Q01DX011 (ip), vehicle: saline) 75 % of control; (dose: 600.0 mg/kg/injection, schedule: Q01DX011 (ip), vehicle: saline) 51 % of control.
On to `NNc1ncnc2nc[nH]c12`, for which the T/C runs as follows: under setting [2], 67 % of control; (dose: 60.0 mg/kg/injection, schedule: Q01DX011 (ip), vehicle: saline) 34 % of control.
In the case of `CS(=O)(=O)OCCCOS(C)(=O)=O`, the T/C (dose: 15.0 mg/kg/injection, schedule: Q01DX011 (ip), vehicle: methylcellulose (MC)) was 83 % of control and the T/C (dose: 30.0 mg/kg/injection, schedule: Q01DX011 (ip), vehicle: methylcellulose (MC)) is 35 % of control.
For the compound `CCCNc1ncnc2[nH]ncc12`, the T/C is 62 % of control under setting [3] and 39 % of control under setting [4].
`Nc1nc(=S)c2[nH]cnc2[nH]1`: the T/C reads like this: (dose: 0.06 mg/kg/injection, schedule: Q01DX011 (ip), vehicle: carboxymethylcellulose (CMC)) 81 % of control; (dose: 0.13 mg/kg/injection, schedule: Q01DX011 (ip), vehicle: carboxymethylcellulose (CMC)) 111 % of control; (dose: 0.25 mg/kg/injection, schedule: Q01DX011 (ip), vehicle: carboxymethylcellulose (CMC)) 18 % of control; under setting [5], 7 % of control and 8 % of control; (dose: 0.5 mg/kg/injection, schedule: Q01DX011 (ip), vehicle: saline) 3 % of control; (dose: 1.0 mg/kg/injection, schedule: Q01DX011 (ip), vehicle: carboxymethylcellulose (CMC)) 7 % of control.
As for `S=c1nc[nH]c2nc[nH]c12`, the T/C (dose: 1.5 mg/kg/injection, schedule: Q01DX011 (ip), vehicle: carboxymethylcellulose (CMC)) was 26 % of control; the T/C under setting [6] is 7 % of control; the T/C (dose: 2.5 mg/kg/injection, schedule: Q01DX011 (ip), vehicle: saline) was 4 % of control; the T/C under setting [7] was 8 % of control and 13 % of control; the T/C (dose: 5.0 mg/kg/injection, schedule: Q01DX011 (oral), vehicle: carboxymethylcellulose (CMC)) was 1 % of control; the T/C (dose: 6.0 mg/kg/injection, schedule: Q01DX011 (ip), vehicle: carboxymethylcellulose (CMC)) is 4 % of control. In addition, the T/C was 2 % of control (dose: 10.0 mg/kg/injection, schedule: Q02DX006 (ip), vehicle: other); 6 % of control under setting [4]; 2 % of control (dose: 20.0 mg/kg/injection, schedule: Q01DX011 (ip), vehicle: carboxymethylcellulose (CMC)); 2 % of control (dose: 20.0 mg/kg/injection, schedule: Q01DX011 (oral), vehicle: alkali diluted with saline); 2 % of control (dose: 20.0 mg/kg/injection, schedule: Q02DX006 (ip), vehicle: other); 3 % of control (dose: 30.0 mg/kg/injection, schedule: Q02DX006 (ip), vehicle: other). Further, the T/C by setting is: (dose: 40.0 mg/kg/injection, schedule: Q01DX011 (oral), vehicle: alkali diluted with saline) 2 % of control; (dose: 80.0 mg/kg/injection, schedule: Q01DX011 (oral), vehicle: alkali diluted with saline) 1 % of control; under setting [8], 11 % of control; under setting [9], 1 % of control; under setting [10], 5 % of control; under setting [11], 8 % of control. Moreover, the T/C reads like this: under setting [12], 4 % of control; under setting [13], 9 % of control; under setting [14], 2 % of control; (dose: 960.0 mg/kg/injection, schedule: Q01DX001 (oral), vehicle: alkali diluted with saline) 11 % of control.
For the compound `NC(=S)N/N=C/c1ccc(N)cc1`, the T/C is, setting by setting: (dose: 35.0 mg/kg/injection, schedule: Q02DX006 (ip), vehicle: other) 86 % of control; (dose: 40.0 mg/kg/injection, schedule: Q02DX006 (ip), vehicle: other) 85 % of control; (dose: 50.0 mg/kg/injection, schedule: Q02DX006 (ip), vehicle: other) 87 % of control; (dose: 60.0 mg/kg/injection, schedule: Q02DX006 (ip), vehicle: other) 70 % of control; (dose: 70.0 mg/kg/injection, schedule: Q02DX006 (ip), vehicle: other) 77 % of control.
Consider `CNc1ncnc2c1cnn2C`, for which the T/C is 84 % of control (dose: 2.0 mg/kg/injection, schedule: Q01DX011 (ip), vehicle: saline); 89 % of control under setting [7]; 120 % of control under setting [3]; 36 % of control under setting [15].
In the case of `O=C(O)c1[nH]c(=O)[nH]c(=O)c1Br`, under setting [16], the T/C is 54 % of control.
For the compound `OCC1OC(n2cnc3c(=S)nc[nH]c32)C(O)C1O` (stereo not given), the T/C is 29 % of control under setting [5]; 13 % of control (dose: 1.25 mg/kg/injection, schedule: Q01DX011 (ip), vehicle: carboxymethylcellulose (CMC)); 3 % of control under setting [6]; 2 % of control (dose: 34.0 mg/kg/injection, schedule: Q01DX011 (ip), vehicle: saline); 10 % of control under setting [8]; 2 % of control under setting [9]. Further, the T/C reads like this: under setting [10], 5 % of control; under setting [11], 12 % of control; (dose: 480.0 mg/kg/injection, schedule: Q03DX004 (oral), vehicle: alkali diluted with saline) 6 % of control; under setting [12], 5 % of control; under setting [13], 68 % of control; (dose: 640.0 mg/kg/injection, schedule: Q03DX004 (oral), vehicle: alkali diluted with saline) 1 % of control. Besides, under setting [14], the T/C is 32 % of control.
In the case of `O=P1(N(CCF)CCF)NCCCO1` (stereo not given), the T/C was 40 % of control (dose: 0.94 mg/kg/injection, schedule: Q01DX011 (ip), vehicle: saline); 56 % of control (dose: 1.88 mg/kg/injection, schedule: Q01DX011 (ip), vehicle: saline); 22 % of control (dose: 3.75 mg/kg/injection, schedule: Q01DX011 (ip), vehicle: saline).
As to `Cc1ncc(CO)c(C)c1O`, the T/C (dose: 3.13 mg/kg/injection, schedule: Q01DX011 (ip), vehicle: saline) was 88 % of control; the T/C (dose: 6.25 mg/kg/injection, schedule: Q01DX011 (ip), vehicle: saline) is 107 % of control; the T/C (dose: 12.5 mg/kg/injection, schedule: Q01DX011 (ip), vehicle: saline) is 98 % of control; the T/C (dose: 25.0 mg/kg/injection, schedule: Q01DX011 (ip), vehicle: saline) is 106 % of control; the T/C under setting [16] is 74 % of control and 88 % of control; the T/C (dose: 100.0 mg/kg/injection, schedule: Q01DX011 (ip), vehicle: saline) is 84 % of control and 107 % of control. Also, the T/C reads like this: (dose: 125.0 mg/kg/injection, schedule: Q01DX011 (ip), vehicle: saline) 47 % of control; under setting [1], 56 % of control and 66 % of control; (dose: 200.0 mg/kg/injection, schedule: Q01DX011 (ip), vehicle: saline) 119 % of control.
Turning to `CCCCOC(=O)C1(N)CCCC1`, the T/C is 52 % of control (dose: 28.0 mg/kg/injection, schedule: Q01DX011 (ip), vehicle: saline) and 24 % of control (dose: 56.0 mg/kg/injection, schedule: Q01DX011 (ip), vehicle: saline).
Turning to `Nc1ncnc2n[nH]nc12`, the T/C was 60 % of control under setting [15]; 85 % of control under setting [2]; 46 % of control (dose: 40.0 mg/kg/injection, schedule: Q01DX011 (ip), vehicle: saline).
With `NC(=S)N/N=C/c1ccc([N+](=O)[O-])cc1`, the T/C (dose: 75.0 mg/kg/injection, schedule: Q02DX006 (ip), vehicle: saline) is 22 % of control and the T/C (dose: 100.0 mg/kg/injection, schedule: Q02DX006 (ip), vehicle: saline) was 31 % of control.

For the origin of these results see PubChem BioAssay AID218 (DTP/NCI, 2004).
